Assay results reported in US6696081B2, “Carbohydrate based lipid compositions and supramolecular structures comprising same” (Duke University, priority 2000, dated 2004).
“And” between values parts separate entries of the source, which are not always exact repeats. Equal entries are not always repeated. Where two headings read alike, the source gives them in different places. One block for each molecule: values may come before it.

Columns and labels:
[1] = Modulated differential scanning calorimetry (MDSC) of hydrated lipid bilayers; format: physicochemical; conditions: for enthalpy of transition / phase-transition temperature (Tm) of the bilayer: lipid hydrated in water, MDSC; for increase of Tm over the glycerol analog: DLRPC vs DLPC, DMRPC vs DMPC
Method: The phase-transition temperatures (Tm) of the bilayers formed by DLRPC, DMRPC and DARPC were determined by modulated differential scanning calorimetry (MDSC). […] For DARPC, the similarity in Tm was not entirely unexpected since tail—tail interactions contribute more to the Tm as the tail length increases. […] At the phase-transition temperature, the bilayer transformed from the gel-liquid crystalline phase in glycerol based phospholipids such as DLPC and DMPC. This endothermic process was observed as two discreet events. A small pre-transition peak, corresponding to the conversion from a lamellar gel (Lβ) phase to rippled gel (Pβ) phase, occurred below a much larger sharp main transition peak corresponding to conversion of the Pβ phase to the liquid crystalline Lα phase. The temperature at which the pre-transition existed as well as the enthalpy of the transition both changed as a function of tail length in a linear pattern. This presence of two well-defined phase transitions was not observed for the carbohydrate-based lipids.
Thermal Analysis of DLRPC 1-2 mgs of lipid were hermetically sealed with […] water in an aluminum pan. The modulation was set to ±1.00° C. every 40 seconds and the pan was equilibrated at −15° C. The temperature was increased at 0.5° C./min to 70° C. where the temperature was held for 2 minutes. The temperature was then reduced to −10° C. and held at this temperature for 2 minutes. This heating-cooling cycle was repeated two more times before the sample was held isothermal at −10° C. for 20 minutes. Integrating under the heat flow peak curve of the main peak provides the enthalpy of the transition. TA Instruments Universal Analysis computer program (available from TA Instruments of New Castle, Del., United States of America) was used to analyze the data. DLRPC has a Tm of 15.75° C. and an enthalpy of 3.3 kcal/mol.
The same modulated differential scanning calorimetry method used on DLRPC was employed to obtain thermotropic data on DMRPC.
The same modulated differential scanning calorimetry method used on DLRPC was employed to obtain thermotropic data on DARPC.

[2] = system: PLA2 (naja naja venom); assay: pH-stat phospholipase assay; format: biochemical; conditions: for initial average rate of hydrolysis by PLA2: lipid as substrate, Triton X-100 40 mM, CaCl2 10 mM, 40° C., pH 8.0, PLA2 0.1 units/mL
Method: The pH-stat phospholipase assays were performed on a Metrohm 718 STAT Titrino pH-stat following a procedure described by Yuan et al. (Yuan, W.; Berman, R. J.; Gelb, M. H. J. Am. Chem. Soc. 1987, 109, 8071-8081; Deems, R. A.; Dennis, E. A. Methods Enzym 1981, 71, 703-710.) Before the assays were performed, the pH-stat was calibrated at pH 7 and pH 4. The NaOH (0.01 N) titrant was standardized by titration to pH 8.65 with a weighed amount of potassium hydrogen-phthalate in 40 mL of Dl water. The lipid was transferred to a 5 mL round bottom flask in methylene chloride/methanol (98/2) and the solvent was removed by rotoevaporation. High vacuum then removed trace amounts of remaining solvent. The lipid film was rehydrated with 2 mL of an aqueous solution containing TRITON X-100™ detergent (Sigma Chemical Company, St. Louis, Mo.) (40 mM) and CaCl2 (10 mM) and then sonicated briefly to solubilize the lipids.
Next, the solution was immersed in a temperature-controlled bath at 40° C. and stirred with a magnetic stir bar. A stream of argon was passed over the reaction mixture to prevent CO2 absorption. A microelectrode (Metrohm 6.0224.100 pH 1-11/0-60° C. Idrolyte) was inserted through the top of the reaction vessel along with the dosing tube from the pH-stat. The reaction mixture was adjusted to a pH of 8.2 by addition of NaOH. Next, 0.2 units of PLA2 (naja naja venom, Sigma Chemical Company, St. Louis, Mo.) (0.1 units/mL) was added to the reaction and the reaction started. The pH was allowed to drop to 8.0 and held at this value by addition of NaOH. At pH 8, the fatty acids were almost completely ionized; therefore, the amount of base added as a function of time indicates cleavage of the ester bond.
In this Example, enzymatic activity was recorded using a pH-stat, which maintains a specific pH by adding base during the enzymatic reaction. During these assays, DMPC was hydrolyzed with an initial average rate of 6.19 E-08 (moles NaOH/minute) (std dev 6.72E-10).
Next, whether DMRPC inhibits PLA2 activity was investigated. Using DMPC (5 mM) as a substrate, DMRPC was added to the reaction mixture at varying concentrations. […] With a change in structure, different carbohydrate-based phospholipids could inhibit PLA2.

[3] = Carboxyfluorescein leakage assay of carbohydrosomes; format: physicochemical
Text: The following procedure is adapted from Weinstein et al. (Weinstein, et al., Self-Quenching of Carboxyfluorescein Fluorescence: Uses in Studying Liposome Stability and Liposome-Cell Interaction; Weinstein, J. N.; et al., Ed.; CRC Press, Inc.: Boca Raton, Fla., United States of Amenica 1984; Vol. 3, pp 183-204.) and was successfully used in DMPC control experiments. Immediately before use, the carbohydrate-based lipid DMRPC, was passed through a C-18 SEP PAK™ column using a solvent system of 10% MeOH/CH3CN. Both the cholesterol and DMRPC were dissolved in chloroform and mixed. The mixtures were dried by rotoevaporation in a 100 mL round bottom flask before being thoroughly dried by high vacuum. […] The size of the liposomes was determined using dynamic light scattering. […] The filtered liposomes were diluted into osmotically equivalent 20 mM PBS buffer at pH 7.4 and the fluorescence intensity was measured over time. […]
As discussed herein above, one of the most wide-spread uses of liposomes is as drug delivery vehicles in warm-blooded vertebrates, including humans. […] In this Example, release of the self-quenching dye 5(6)-carboxyfluorescein (encapsulated in 5 mg/mL) was monitored over time by preparing carboxyfluorescein-containing carbohydrosomes using the high-pressure extrusion method. […]

[4] = literature value, Marsh, CRC Handbook of Lipid Bilayers; cited from earlier work
[5] = 40 mol % cholesterol; McMullen et al.; cited from earlier work
[6] = MDSC thermal analysis of DLRPA as a function of pH; format: physicochemical
Text: The same modulated differential scanning calorimetry method used on DLRPC was employed to obtain thermotropic data on DLRPA. Instead of using water to hydrate the samples however, the following 5 buffers were utilized: a) 0.1 M KCl/HCl at pH 1.5, b) 0.1 M KCl/HCl at pH 4.14, c) 0.1 M Tris-HCl at pH 7.4, d) 0.01 M sodium borate at pH 8.44, and e) 0.01 M sodium borate at pH 9.5.
The effect of pH on the phase-transition temperature of DLRPA supramolecular structures was probed using modulated differential scanning calorimetry. Experiments were performed in the following 5 solutions: a) 0.1 M KCl/HCl at pH 1.5, b) 0.1 M KCl/HCl at pH 4.14, c) 0.1 M Tris-HCl at pH 7.4, d) 0.01 M sodium borate at pH 8.44, and e) 0.01 M sodium borate at pH 9.5.

[7] = Cholesterol interactions: MDSC of lipid/cholesterol mixtures; format: physicochemical
Method: The enthalpy was zero at 50 mol % cholesterol for DMRPC. For the glycerol-based phospholipid, cholesterol packed in the bilayer membrane with its hydroxyl group at the same level as the acyl groups. In this structural arrangement, cholesterol primarily interacted with the tails and not the head group or backbone.
For DMRPC, a slight decrease in phase-transition temperature was observed. The phase-transition temperature decreased from ˜30° C. at 0 mol % cholesterol to ˜27° C. at 35 mol % cholesterol. […] The carbohydrate backbone of DMRPC likely altered the effective hydrophobic length of the bilayer area (this DMRPC is similar to longer tail systems). There was a slight destabilization of the bilayer membrane with the incorporation of cholesterol as indicated by the decrease in phase-transition temperature. […] X-ray data on 20 mol % cholesterol/DMRPC confirmed the Lc state.

[8] = glycerol analog, Van Dijck et al.; cited from earlier work

Molecule: methyl-2,3-di-O-arachadonyl-b-D-ribo-5-phosphocholine [DARPC]
enthalpy of transition [1]: 5.1 ± 1.5 kcal/mol and 5.1 kcal/mol | phase-transition temperature (Tm) of the bilayer [1]: 63.5±0.6 °C and 63.5 °C

increase of Tm over the glycerol analog [1]: 16 °C | enthalpy of transition [1]: 3.3 ± 0.3 kcal/mol and 3.3 kcal/mol | phase-transition temperature (Tm) of the bilayer [1]: 15.75±0.05 °C and 15.75 °C
Molecule: CCCCCCCCCCCC(=O)O[C@H]1[C@H](OC)O[C@H](COP(=O)([O-])OCC[N+](C)(C)C)[C@H]1OC(=O)CCCCCCCCCCC [DLRPC, Methyl-2,3-di-O-lauroyl-b-D-ribo-5-phosphocholine]

Molecule: CCCCCCCCCCCCCC(=O)OC[C@H](COP(=O)([O-])OCC[N+](C)(C)C)OC(=O)CCCCCCCCCCCCC [DMPC, reference compound]
enthalpy of transition [1]: 5.6 ± 1.1 kcal/mol | phase-transition temperature (Tm) of the bilayer [1]: 23.5 °C | initial average rate of hydrolysis by PLA2 [2]: 6.19 E-08 moles NaOH/minute and 6.19 E-08 (std. dev. 6.72E-10) moles NaOH/minute | release of carboxyfluorescein in the first 20 minutes ([3]; vesicles in 20 mM PBS pH 7.4): release dye over the first 20 minutes | enthalpy of transition (literature) [4]: 5.9 ± 0.6 kcal/mol | increase in phase-transition temperature [5]: ≤ 17 °C

Molecule: bis-(2,3-lauroyl)-1-methoxy-5-ribo-phosphatidic acid [DLRPA]
pH at which the first proton of the phosphate is lost ([6]; from Tm versus pH profile): 3-4 | pH at which the second proton of the phosphate is lost ([6]; from Tm versus pH profile): ~8.5 | Tm ([6]; pH 1.5, 0.1 M KCl/HCl): ~45 °C | Tm ([6]; pH 4.14, 0.1 M KCl/HCl): 34 °C | Tm ([6]; pH 7.4, 0.1 M Tris-HCl): 31 °C | Tm ([6]; pH 8.4, 0.01 M sodium borate): 29 °C | Tm ([6]; pH 9.5, 0.01 M sodium borate): ~18 °C

Molecule: CCCCCCCCCCCC(=O)OC[C@H](COP(=O)([O-])OCC[N+](C)(C)C)OC(=O)CCCCCCCCCCC [DLPC, 1,2-dilauroyl-sn-glycero-3-phosphocholine, reference compound]
enthalpy of transition [1]: 1.5 kcal/mol | phase-transition temperature (Tm) of the bilayer [1]: −1.1±0.8 °C

Molecule: methyl-2,3-di-O-myristoyl-b-D-ribo-5-phosphocholine [DMRPC]
increase of Tm over the glycerol analog [1]: approximately 6 °C | enthalpy of transition [1]: 6.1 ± 1.0 kcal/mol and 6.1 kcal/mol | phase-transition temperature (Tm) of the bilayer [1]: 29.6±0.3 °C and 29 °C and 29.6 °C | phase-transition temperature ([7]; 0 mol % cholesterol): ~30 °C | phase-transition temperature ([7]; 35 mol % cholesterol): ~27 °C | enthalpy of transition ([7]; 50 mol % cholesterol): zero | hydrolysis rate of DMPC with DMRPC added ([2]; DMPC (5 mM) as substrate, DMRPC added to the reaction mixture): 6.32E-08 (std. dev. 1.36E-08) moles NaOH/minute | inhibition of PLA2 activity ([2]; DMPC (5 mM) as substrate, as much as 4 mM DMRPC added): did not yield a significant hydrolysis rate decrease | initial average rate of hydrolysis by PLA2 [2]: not hydrolyzed | vesicle survival of SEPHADEX G-50 column separation ([3]; vesicles of 100% DMRPC (0% cholesterol)): too fragile to survive

enthalpy of transition [1]: 12.6 ± 0.7 kcal/mol | phase-transition temperature (Tm) of the bilayer [1]: 66 °C
Molecule: CCCCCCCCCCCCCCCCCCCC(=O)OC[C@H](COP(=O)([O-])OCC[N+](C)(C)C)OC(=O)CCCCCCCCCCCCCCCCCCC [DAPC, reference compound]
enthalpy of transition (literature) [4]: 11.93 kcal/mol

Molecule: CCCCCCCCCCCC(=O)OC[C@H](COP(=O)(O)O)OC(=O)CCCCCCCCCCC [DLPA, dilauroyl phosphatidic acid]
pH at which the first proton of the phosphate is lost [8]: 3-4 | pH at which the second proton of the phosphate is lost [8]: ~7
